Results filed as inconclusive are left out.
Test system: nude mice, LX-1 lung xenograft intrarenal, tumor weight T/C
Test: NCI In Vivo Anticancer Drug Screen. Data for tumor model Human Lung LX-1 Xenograft (intrarenal inoculation) in NU/NU Swiss (nude) mice
Conditions: endpoint: mean tumor weight change, higher = larger tumour
How it was run: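 Tumor-bearing mice receive test compound or vehicle; tumor size is then measured in each group. The treated value is divided by the vehicle value to give T/C.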

[1] = dose: 600.0 mg/kg/injection, schedule: Q04DX003 (sc), vehicle: saline with Tween-80
[2] = dose: 1200.0 mg/kg/injection, schedule: Q04DX003 (sc), vehicle: saline with Tween-80
[3] = dose: 2400.0 mg/kg/injection, schedule: Q04DX003 (sc), vehicle: saline with Tween-80
[4] = dose: 200.0 mg/kg/injection, schedule: Q04DX003 (sc), vehicle: saline with Tween-80
[5] = dose: 800.0 mg/kg/injection, schedule: Q04DX003 (sc), vehicle: saline with Tween-80
[6] = dose: 300.0 mg/kg/injection, schedule: Q04DX003 (sc), vehicle: saline with Tween-80
[7] = dose: 300.0 mg/kg/injection, schedule: Q04DX003 (sc), vehicle: Klucel (hydroxypropylcellulose) (HPC)
[8] = dose: 600.0 mg/kg/injection, schedule: Q04DX003 (sc), vehicle: Klucel (hydroxypropylcellulose) (HPC)
[9] = dose: 1200.0 mg/kg/injection, schedule: Q04DX003 (sc), vehicle: Klucel (hydroxypropylcellulose) (HPC)
[10] = dose: 100.0 mg/kg/injection, schedule: Q04DX003 (sc), vehicle: water
[11] = dose: 200.0 mg/kg/injection, schedule: Q04DX003 (sc), vehicle: water
[12] = dose: 75.0 mg/kg/injection, schedule: Q04DX003 (sc), vehicle: saline with Tween-80
[13] = dose: 150.0 mg/kg/injection, schedule: Q04DX003 (sc), vehicle: saline with Tween-80

SMILES: COC1=C(OC)C(=O)C(SC/C=C(\C)CCCC(C)CCCC(C)CCCC(C)C)=CC1=O (stereo not given)
- T/C [1]: 91 % of control
- T/C [2]: 40 % of control
- T/C [3]: 55 % of control

SMILES: O=C1[C@H]2CCC[C@H]2[C@H]2CCC[C@@H]12
- T/C [4]: 166 % of control
- T/C [5]: 120 % of control
- T/C (dose: 1600.0 mg/kg/injection, schedule: Q04DX003 (sc), vehicle: saline with Tween-80): 98 % of control

SMILES: O=[N+]([O-])c1ccc(Sc2ccncn2)c([N+](=O)[O-])c1
- T/C [6]: 104 % of control
- T/C [1]: 105 % of control
- T/C [2]: 98 % of control

SMILES: ClCCCN1CCN(CCCCl)CC1
- T/C (dose: 150.0 mg/kg/injection, schedule: Q04DX003 (sc), vehicle: distilled water + alcohol): 90 % of control

SMILES: CC(=O)Nc1ccc(O)c(O)c1
- T/C [6]: 154 % of control
- T/C [1]: 103 % of control
- T/C [3]: 51 % of control

SMILES: O=c1nc(-c2ccco2)sc(=O)[nH]1
- T/C (dose: 150.0 mg/kg/injection, schedule: Q04DX003 (sc), vehicle: Klucel (hydroxypropylcellulose) (HPC)): 90 % of control
- T/C [7]: 68 % of control
- T/C [8]: 53 % of control
- T/C [9]: 38 % of control

SMILES: c1cc[c]([Sn][c]2ccccc2)cc1
- T/C (dose: 10.0 mg/kg/injection, schedule: Q01DX010 (sc), vehicle: saline): 78 % of control
- T/C (dose: 20.0 mg/kg/injection, schedule: Q01DX010 (sc), vehicle: saline): 54 % of control
- T/C (dose: 40.0 mg/kg/injection, schedule: Q01DX010 (sc), vehicle: saline): 81 % of control

SMILES: Cn1/c2cc/c1=C(\c1ccc(S(=O)(=O)O)cc1)c1ccc([n-]1)/C(c1ccc(S(=O)(=O)O)cc1)=c1/cc/c([nH]1)=C(\c1ccc(S(=O)(=O)O)cc1)c1ccc([n-]1)/C=2c1ccc(S(=O)(=O)O)cc1.O.O=S(=O)(O)C(F)(F)F.[Cu+2]
- T/C (dose: 200.0 mg/kg/injection, schedule: Q04DX003 (sc), vehicle: suspension in saline): 100 % of control
- T/C (dose: 400.0 mg/kg/injection, schedule: Q04DX003 (sc), vehicle: suspension in saline): 109 % of control
- T/C (dose: 800.0 mg/kg/injection, schedule: Q04DX003 (sc), vehicle: suspension in saline): 94 % of control

SMILES: Oc1cc2c3c(c1)c1cc4c(cc1c[n+]3CC2)OCO4
- T/C (dose: 25.0 mg/kg/injection, schedule: Q04DX003 (sc), vehicle: water): 102 % of control
- T/C (dose: 50.0 mg/kg/injection, schedule: Q04DX003 (sc), vehicle: water): 124 % of control
- T/C [10]: 93 % of control
- T/C [11]: 103 % of control

SMILES: O=C(O)C(O)C(O)C1[O][Sb][O]C1C(=O)O (stereo not given)
- T/C (dose: 37.5 mg/kg/injection, schedule: Q04DX003 (sc), vehicle: saline): 106 % of control
- T/C (dose: 75.0 mg/kg/injection, schedule: Q04DX003 (sc), vehicle: saline): 105 % of control

SMILES: C[CH2][Ge]([CH2]C)[CH2]C.C[CH2][Ge]([CH2]C)[CH2]C.C[CH2][Ge]([CH2]C)[O][Ge]([CH2]C)[CH2]C
- T/C [12]: 91 % of control
- T/C [13]: 98 % of control
- T/C [6]: 63 % of control
- T/C [1]: 114 % of control

SMILES: CCCCCC[C@H]([C@H](C)O)n1cnc2c(N)ncnc21
- T/C (dose: 100.0 mg/kg/injection, schedule: Q01DX010 (sc), vehicle: Klucel (hydroxypropylcellulose) (HPC)): 52 % of control
- T/C (dose: 200.0 mg/kg/injection, schedule: Q01DX010 (sc), vehicle: Klucel (hydroxypropylcellulose) (HPC)): 34 % of control

SMILES: CC(C)[C@](O)(C(=O)OCC1=CC[N+]2([O-])CC[C@@H](O)[C@@H]12)[C@H](C)O (stereo not given in full)
- T/C (dose: 50.0 mg/kg/injection, schedule: Q01DX010 (sc), vehicle: water): 59 % of control
- T/C (dose: 100.0 mg/kg/injection, schedule: Q01DX010 (sc), vehicle: water): 44 % of control
- T/C (dose: 200.0 mg/kg/injection, schedule: Q01DX010 (sc), vehicle: water): 58 % of control
- T/C (dose: 400.0 mg/kg/injection, schedule: Q01DX010 (sc), vehicle: water): 36 % of control

SMILES: O=C1NCC(Br)C(=O)N1 (stereo not given)
- T/C [13]: 99 % of control
- T/C [6]: 90 % of control

SMILES: NC(C/[N+]([O-])=N/O)C(=O)O (stereo not given)
- T/C (dose: 50.0 mg/kg/injection, schedule: Q01DX010 (sc), vehicle: saline): 47 % of control

SMILES: CC[C@H](CC[C@@H](C)C1CC[C@H]2[C@@H]3CC=C4C[C@@H](OP(=O)(N5CC5)N5CC5)CC[C@]4(C)[C@H]3CC[C@]12C)C(C)C (stereo not given in full)
- T/C [6]: 57 % of control
- T/C [1]: 78 % of control
- T/C [2]: 83 % of control
- T/C [3]: 80 % of control

SMILES: CCCCCCCCSC1=C(Cl)C(=O)C(OC)=C(OC)C1=O
- T/C (dose: 18.0 mg/kg/injection, schedule: Q04DX003 (sc), vehicle: saline with Tween-80): 82 % of control
- T/C (dose: 36.0 mg/kg/injection, schedule: Q04DX003 (sc), vehicle: saline with Tween-80): 81 % of control
- T/C (dose: 144.0 mg/kg/injection, schedule: Q04DX003 (sc), vehicle: saline with Tween-80): 57 % of control

SMILES: CCc1ccc(C2=C(O)C(=O)C(c3ccccc3)=C(O)C2=O)cc1
- T/C [7]: 104 % of control
- T/C [8]: 49 % of control
- T/C [9]: 36 % of control

SMILES: Cc1cc(=O)n2c3c(c4c(cc13)c(CN(C)C)cc(=O)n4C)OC2
- T/C [12]: 59 % of control
- T/C [13]: 89 % of control
- T/C [6]: 55 % of control

SMILES: C/C(=N/NC(N)=S)c1ccc2ccccc2c1
- T/C (dose: 12.5 mg/kg/injection, schedule: Q01DX010 (sc), vehicle: saline with Tween-80): 63 % of control
- T/C (dose: 25.0 mg/kg/injection, schedule: Q01DX010 (sc), vehicle: saline with Tween-80): 42 % of control
- T/C (dose: 200.0 mg/kg/injection, schedule: Q01DX010 (sc), vehicle: saline with Tween-80): 61 % of control
- T/C (dose: 400.0 mg/kg/injection, schedule: Q01DX010 (sc), vehicle: saline with Tween-80): 39 % of control

SMILES: C=C1C(C)C2C(Cc3ccccc3)NC(=O)C23C(OC(C)=O)/C=C/C(C)(O)CC(C)C/C=C/C3C1O (stereo not given)
- T/C (dose: 6.25 mg/kg/injection, schedule: Q04DX003 (sc), vehicle: Klucel (hydroxypropylcellulose) (HPC)): 112 % of control
- T/C (dose: 12.5 mg/kg/injection, schedule: Q04DX003 (sc), vehicle: Klucel (hydroxypropylcellulose) (HPC)): 112 % of control

SMILES: Cc1c(N)nc(C(CC(N)=O)NCC(N)C(N)=O)nc1C(=O)NC(C(=O)NC(C)C(O)CC(=O)NC(C(=O)NC(OC1OC(C)C(N)C(O)C1O)C(O)c1nc(-c2nc(C(=O)NCCCC(N)CC(=O)NCCCNCCCCN)cs2)cs1)C(C)O)C(OC1OC(CO)C(O)C(O)C1OC1OC(CO)C(O)C(OC(N)=O)C1O)c1cnc[nH]1 (stereo not given)
- T/C (dose: 16.0 mg/kg/injection, schedule: Q04DX003 (sc), vehicle: saline): 73 % of control

SMILES: COC1/C=C/C=C(/C)Cc2cc(O)c(Cl)c(c2)N(C)C(=O)CC(OC(=O)C(C)C)C2(C)OC2C(C)C2CC1(O)NC(=O)O2 (stereo not given)
- T/C (dose: 1.0 mg/kg/injection, schedule: Q04DX003 (sc), vehicle: saline + alcohol): 81 % of control
- T/C (dose: 2.0 mg/kg/injection, schedule: Q04DX003 (sc), vehicle: saline + alcohol): 67 % of control
- T/C (dose: 4.0 mg/kg/injection, schedule: Q04DX003 (sc), vehicle: saline + alcohol): 58 % of control

SMILES: c1cc(-c2cc3ccc(C4=NCCN4)cc3[nH]2)ccc1C1=NCCN1
- T/C (dose: 25.0 mg/kg/injection, schedule: Q04DX003 (sc), vehicle: saline): 68 % of control
- T/C (dose: 50.0 mg/kg/injection, schedule: Q04DX003 (sc), vehicle: saline): 67 % of control
- T/C (dose: 100.0 mg/kg/injection, schedule: Q04DX003 (sc), vehicle: saline): 73 % of control

SMILES: CC(=O)NC(C=O)OCC=O (stereo not given)
- T/C [10]: 116 % of control
- T/C [11]: 112 % of control
- T/C (dose: 400.0 mg/kg/injection, schedule: Q04DX003 (sc), vehicle: water): 121 % of control

SMILES: Nc1nc(-c2cccc3ccccc23)cc2ccccc12
- T/C (dose: 100.0 mg/kg/injection, schedule: Q04DX003 (sc), vehicle: saline with Tween-80): 107 % of control
- T/C [4]: 91 % of control
- T/C (dose: 400.0 mg/kg/injection, schedule: Q04DX003 (sc), vehicle: saline with Tween-80): 94 % of control
- T/C [5]: 53 % of control

SMILES: Cc1ccc(S(=O)(=O)OCOS(=O)(=O)c2ccc(C)cc2)cc1
- T/C [7]: 79 % of control
- T/C [8]: 95 % of control
- T/C [9]: 74 % of control
- T/C (dose: 2400.0 mg/kg/injection, schedule: Q04DX003 (sc), vehicle: Klucel (hydroxypropylcellulose) (HPC)): 100 % of control

SMILES: O=C(NO)c1ccc(O)c(O)c1
- T/C (dose: 200.0 mg/kg/injection, schedule: Q04DX003 (sc), vehicle: distilled water + Tween-80): 103 % of control
- T/C (dose: 400.0 mg/kg/injection, schedule: Q04DX003 (sc), vehicle: distilled water + Tween-80): 74 % of control
- T/C (dose: 800.0 mg/kg/injection, schedule: Q04DX003 (sc), vehicle: distilled water + Tween-80): 78 % of control

SMILES: Brc1ccc(C[N+]23CN4CN(CN(C4)C2)C3)cc1
- T/C [13]: 91 % of control
- T/C [6]: 101 % of control
- T/C [1]: 76 % of control

— PubChem BioAssay AID264 (DTP/NCI, 2004)
